Laboratory results as given in patent US20080051429A1, “USE OF 4-AMINO-PIPERIDINES FOR TREATING SLEEP DISORDERS” (priority 2006, published 2008).
Counter-ions that a name gives are not always drawn. Like-named read-outs stand apart in the source and are kept apart here.

Legend:
[1] = target: T1, 5-HT2A receptor (Homo sapiens, UniProt P28223); assay: R-SAT functional receptor assay; assay type: cell-based
T1 construct: expressed in transfected cells; host or cells: NIH3T3 cells, pSI expression vector
T1 sequence (P28223 whole entry): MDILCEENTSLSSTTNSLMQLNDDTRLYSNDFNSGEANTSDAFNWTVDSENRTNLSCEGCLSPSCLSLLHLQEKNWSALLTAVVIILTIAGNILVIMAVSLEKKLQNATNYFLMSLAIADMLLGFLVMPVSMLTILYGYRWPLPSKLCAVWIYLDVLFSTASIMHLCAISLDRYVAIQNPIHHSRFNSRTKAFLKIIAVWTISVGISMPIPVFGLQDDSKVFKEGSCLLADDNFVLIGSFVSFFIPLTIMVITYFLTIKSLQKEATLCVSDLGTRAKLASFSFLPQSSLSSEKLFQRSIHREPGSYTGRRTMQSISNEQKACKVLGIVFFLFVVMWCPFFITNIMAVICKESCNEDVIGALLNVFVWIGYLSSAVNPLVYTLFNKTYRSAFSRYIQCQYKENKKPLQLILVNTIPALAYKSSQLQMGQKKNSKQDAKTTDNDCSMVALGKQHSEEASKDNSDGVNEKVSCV

[2] = system: Male NSA mice; assay: In vivo determination of behavioral effects (motor activity, MK-801 hyperactivity); conditions: p.o.; minimum effective dose vs vehicle control
Method: Male NSA mice (Harlan; San Deigo, Calif.) were used as subjects. Mice weighed 20-30 g. Animals were housed 8/cage in the One Cage system (One Cage; Lab Products, Inc., Seaford, Del.) with bedding (⅛ inch Bed “O” Cob; Harlan Teklad, Madison, Wis.) in a room with controlled temperature 22±3° C. and a 12 hour light:dark cycle (lights on 6 am). Water and standard rodent chow (Harlan Teklad) were continuously available in the home cage. For testing, plastic locomotor activity cages (20×20×30 cm; AccuScan Instruments, Columbus, Ohio) were equipped with photocell beams for monitoring horizontal activity. Data were collected using Versamax computer software (AccuScan Instruments). For determination of spontaneous activity, test compounds were administered alone (s.c. 10 min or p.o. 30 min before the session). For hyperactivity experiments, mice were injected with 0.3 mg/kg MK-8011.p. 15 min precession (the peak dose for producing hyperactivity in an inverted-U dose-effect curve as determined in pilot experiments) in combination with vehicle or test compound. Motor activity data were collected during a 15 min session in a lit room. Mice had no prior exposure to the motor cages. Each dose or dose combination was tested in a separate group of mice (n=8). Distance traveled (cm) was calculated and averaged across animals in a group. […]

[3] = target: T2, 5HT1A (Rattus norvegicus, UniProt P19327); assay: R-SAT selectivity profile; assay type: cell-based; conditions: antagonist
T2 construct: expressed in transfected cells
T2 sequence (P19327 whole entry): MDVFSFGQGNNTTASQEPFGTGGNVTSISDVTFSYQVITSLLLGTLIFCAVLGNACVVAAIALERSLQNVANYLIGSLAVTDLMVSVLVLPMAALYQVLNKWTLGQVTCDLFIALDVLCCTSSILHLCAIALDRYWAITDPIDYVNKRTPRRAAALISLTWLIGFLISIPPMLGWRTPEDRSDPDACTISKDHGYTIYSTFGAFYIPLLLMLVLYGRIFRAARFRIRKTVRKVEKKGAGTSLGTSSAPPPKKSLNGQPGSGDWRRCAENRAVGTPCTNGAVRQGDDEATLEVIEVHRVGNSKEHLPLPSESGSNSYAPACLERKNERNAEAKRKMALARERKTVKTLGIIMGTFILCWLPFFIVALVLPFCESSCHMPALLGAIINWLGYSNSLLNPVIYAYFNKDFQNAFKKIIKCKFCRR
Method: (§1) The functional receptor assay, Receptor Selection and Amplification Technology (R-SAT), was used (with minor modifications from that previously described U.S. Pat. No. 5,707,798) to screen compounds for efficacy at the 5-HT2A receptor. Briefly, NIH3T3 cells were grown in 96 well tissue culture plates to 70-80% confluence. Cells were transfected for 12-16 hours with plasmid DNAs using superfect (Qiagen Inc.) as per manufacture's protocols. R-SAT's were generally performed with 50 ng/well of receptor and 20 ng/well of Beta-galactosidase plasmid DNA. All receptor and G-protein constructs used were in the pSI mammalian expression vector (Promega Inc) as described in U.S. Pat. No. 5,707,798. The 5HT2A receptor gene was amplified by nested PCR from brain cDNA using the oligodeoxynucleotides based on the published sequence (see Saltzman et. al. Biochem. Biophys. Res. Comm. 181:1469-78 (1991)). Large-scale transfections, cells were transfected for 12-16 hours, then trypsinized and frozen in DMSO. Frozen cells were later thawed, plated at 10,000-40,000 cells per well of a 96 well plate that contained drug. With both methods, cells were then grown in a humidified atmosphere with 5% ambient CO2 for five days. Media was then removed from the plates and marker gene activity was measured by the addition of the beta-galactosidase substrate ONPG (in PBS with 5% NP-40). The resulting colorimetric reaction was measured in a spectrophotometric plate reader (Titertek Inc.)at […]. All data were analyzed using the computer program XLFit (IDBSm). Efficacy is the percent maximal repression compared to repression by a control compound (ritanserin in the case of 5HT2A). pIC50 is the negative of the log(IC50), where IC50 is the calculated concentration in Molar that produces 50% maximal repression.
(§2) R-SAT assays (as described in Example 42) were carried out with cells transfected with receptors (listed below) to determine the receptor selectivity profile for compound 26HCH16D. 5HT2A inverse agonist data (IC50 nM; % efficacy) were derived from detailed dose response curves (7 points in triplicate).

[4] = target: T3, alpha1a/D (Rattus norvegicus, UniProt P23944); assay: R-SAT selectivity profile; assay type: cell-based
T3 construct: expressed in transfected cells
T3 sequence (P23944 whole entry): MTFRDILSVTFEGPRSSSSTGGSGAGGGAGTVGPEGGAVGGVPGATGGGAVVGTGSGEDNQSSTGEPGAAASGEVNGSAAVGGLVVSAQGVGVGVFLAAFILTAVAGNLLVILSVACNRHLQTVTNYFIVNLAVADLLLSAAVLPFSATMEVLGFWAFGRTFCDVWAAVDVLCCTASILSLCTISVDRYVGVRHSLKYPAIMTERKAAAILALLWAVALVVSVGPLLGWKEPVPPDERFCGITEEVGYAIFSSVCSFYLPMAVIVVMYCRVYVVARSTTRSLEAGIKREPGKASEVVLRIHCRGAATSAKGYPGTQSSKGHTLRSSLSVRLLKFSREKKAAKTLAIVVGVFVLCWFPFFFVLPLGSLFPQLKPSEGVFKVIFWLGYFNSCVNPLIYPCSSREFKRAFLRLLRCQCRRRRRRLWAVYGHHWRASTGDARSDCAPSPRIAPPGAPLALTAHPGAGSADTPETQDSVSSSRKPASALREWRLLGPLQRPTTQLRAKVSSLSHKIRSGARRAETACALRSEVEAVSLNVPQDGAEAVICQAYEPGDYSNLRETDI
Method: as §1, §2

[5] = target: T4, alpha1c/A (Homo sapiens, UniProt P35348); assay: R-SAT selectivity profile; assay type: cell-based
T4 construct: expressed in transfected cells
T4 sequence (P35348 1-466): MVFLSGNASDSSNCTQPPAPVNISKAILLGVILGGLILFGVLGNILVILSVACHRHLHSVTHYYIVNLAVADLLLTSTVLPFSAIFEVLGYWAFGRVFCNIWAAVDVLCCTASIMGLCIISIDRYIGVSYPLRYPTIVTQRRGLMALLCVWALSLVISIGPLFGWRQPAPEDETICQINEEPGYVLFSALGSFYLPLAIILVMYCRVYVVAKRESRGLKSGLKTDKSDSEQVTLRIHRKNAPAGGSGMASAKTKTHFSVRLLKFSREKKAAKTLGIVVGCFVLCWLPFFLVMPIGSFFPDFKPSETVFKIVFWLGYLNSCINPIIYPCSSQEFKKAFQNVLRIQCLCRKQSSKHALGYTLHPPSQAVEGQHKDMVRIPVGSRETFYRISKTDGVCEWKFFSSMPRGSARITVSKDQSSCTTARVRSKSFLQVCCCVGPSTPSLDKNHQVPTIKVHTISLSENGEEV
Method: as §1, §2

[6] = target: T5, alpha1b/B (Mesocricetus auratus, UniProt P18841); assay: R-SAT selectivity profile; assay type: cell-based, hamster
T5 construct: expressed in transfected cells
T5 sequence (P18841 whole entry): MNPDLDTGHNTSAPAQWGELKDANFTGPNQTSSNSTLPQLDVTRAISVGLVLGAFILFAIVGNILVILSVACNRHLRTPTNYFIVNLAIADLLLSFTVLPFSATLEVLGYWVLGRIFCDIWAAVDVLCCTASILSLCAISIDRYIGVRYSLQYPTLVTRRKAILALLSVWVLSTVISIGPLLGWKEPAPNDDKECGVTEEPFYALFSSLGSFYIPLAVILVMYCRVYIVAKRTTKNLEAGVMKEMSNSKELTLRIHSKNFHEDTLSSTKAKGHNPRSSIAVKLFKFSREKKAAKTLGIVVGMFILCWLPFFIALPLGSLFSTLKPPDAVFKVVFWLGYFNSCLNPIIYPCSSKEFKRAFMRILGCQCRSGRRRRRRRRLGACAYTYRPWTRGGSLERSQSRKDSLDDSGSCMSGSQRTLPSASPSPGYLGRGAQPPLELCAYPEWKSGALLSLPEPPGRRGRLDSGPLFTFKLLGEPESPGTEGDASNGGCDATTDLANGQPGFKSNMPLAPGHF
Method: as §1, with “Frozen cells were later thawed, plated at 10,000-40,000 cells per well of a 96 well plate that contained drug. With both methods, cells were then grown in a humidified atmosphere with 5% ambient CO2 for five days.” left out, “Efficacy is the percent maximal repression compared to repression by a control compound (ritanserin in the case of 5HT2A). pIC50 is the negative of the log(IC50), where IC50 is the calculated concentration in Molar that produces 50% maximal repression.” left out

[7] = target: T6, 5HT1A (Homo sapiens, UniProt P08908); assay: R-SAT selectivity profile; assay type: cell-based; design: expressed in transfected cells; conditions: agonist
T6 sequence (P08908 1-422): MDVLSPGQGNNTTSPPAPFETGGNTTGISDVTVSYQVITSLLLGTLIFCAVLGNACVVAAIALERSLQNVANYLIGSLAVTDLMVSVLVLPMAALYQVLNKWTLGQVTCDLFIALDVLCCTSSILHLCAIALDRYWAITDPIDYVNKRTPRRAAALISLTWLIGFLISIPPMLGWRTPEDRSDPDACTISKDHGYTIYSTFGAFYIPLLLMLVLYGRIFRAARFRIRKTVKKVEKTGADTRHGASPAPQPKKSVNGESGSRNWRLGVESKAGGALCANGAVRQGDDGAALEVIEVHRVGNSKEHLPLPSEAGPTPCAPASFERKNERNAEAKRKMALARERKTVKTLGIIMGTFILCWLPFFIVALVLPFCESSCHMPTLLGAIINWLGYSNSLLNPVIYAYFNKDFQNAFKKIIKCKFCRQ
Method: as §1, §2

[8] = target: 5HT1E (Homo sapiens, UniProt P28566); assay: R-SAT selectivity profile; assay type: cell-based; design: expressed in transfected cells; conditions: agonist
Sequence of 5HT1E (P28566 whole entry): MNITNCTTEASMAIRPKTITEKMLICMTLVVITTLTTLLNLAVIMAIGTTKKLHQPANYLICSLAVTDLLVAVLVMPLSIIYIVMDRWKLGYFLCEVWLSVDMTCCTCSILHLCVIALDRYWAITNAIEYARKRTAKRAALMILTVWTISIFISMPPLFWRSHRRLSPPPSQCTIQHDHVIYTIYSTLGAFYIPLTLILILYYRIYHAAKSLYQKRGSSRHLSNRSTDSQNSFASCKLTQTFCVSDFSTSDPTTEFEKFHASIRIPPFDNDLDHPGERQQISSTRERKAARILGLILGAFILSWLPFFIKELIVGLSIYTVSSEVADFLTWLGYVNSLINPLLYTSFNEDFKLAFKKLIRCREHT
Method: as §1, §2

[9] = target: 5HT2B (Homo sapiens, UniProt P41595); assay: R-SAT selectivity profile; assay type: cell-based; design: expressed in transfected cells
Sequence of 5HT2B (P41595 whole entry): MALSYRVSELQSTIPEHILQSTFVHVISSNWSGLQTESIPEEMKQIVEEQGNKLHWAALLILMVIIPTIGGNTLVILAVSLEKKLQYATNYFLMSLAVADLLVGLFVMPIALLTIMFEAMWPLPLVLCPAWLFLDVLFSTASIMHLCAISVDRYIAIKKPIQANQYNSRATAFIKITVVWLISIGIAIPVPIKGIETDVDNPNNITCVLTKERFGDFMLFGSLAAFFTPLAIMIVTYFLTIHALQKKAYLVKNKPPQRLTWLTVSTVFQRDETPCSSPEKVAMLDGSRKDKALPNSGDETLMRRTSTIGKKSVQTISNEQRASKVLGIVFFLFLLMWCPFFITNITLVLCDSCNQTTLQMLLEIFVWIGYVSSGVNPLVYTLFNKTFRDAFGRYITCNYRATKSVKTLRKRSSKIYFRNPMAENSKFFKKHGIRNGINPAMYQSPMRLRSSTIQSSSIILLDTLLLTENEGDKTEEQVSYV
Method: as §1, §2

[10] = target: T7, 5HT2C (Homo sapiens, UniProt P28335); assay: R-SAT selectivity profile; assay type: cell-based; design: expressed in transfected cells
T7 sequence (P28335 33-458): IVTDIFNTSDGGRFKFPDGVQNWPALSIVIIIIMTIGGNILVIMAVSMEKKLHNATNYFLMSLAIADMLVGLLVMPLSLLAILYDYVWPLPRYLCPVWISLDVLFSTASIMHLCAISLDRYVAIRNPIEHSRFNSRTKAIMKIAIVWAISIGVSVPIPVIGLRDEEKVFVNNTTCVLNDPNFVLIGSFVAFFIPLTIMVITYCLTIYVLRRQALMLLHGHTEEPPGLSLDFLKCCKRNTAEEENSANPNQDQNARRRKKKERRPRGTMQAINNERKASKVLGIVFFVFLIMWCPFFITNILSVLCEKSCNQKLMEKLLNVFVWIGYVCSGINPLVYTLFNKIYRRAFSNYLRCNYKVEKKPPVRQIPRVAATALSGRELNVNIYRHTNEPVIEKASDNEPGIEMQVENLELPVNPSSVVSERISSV
Method: as §1, §2

[11] = target: D2 (Homo sapiens, UniProt P14416); assay: R-SAT selectivity profile; assay type: cell-based; design: expressed in transfected cells
Sequence of D2 (P14416 whole entry): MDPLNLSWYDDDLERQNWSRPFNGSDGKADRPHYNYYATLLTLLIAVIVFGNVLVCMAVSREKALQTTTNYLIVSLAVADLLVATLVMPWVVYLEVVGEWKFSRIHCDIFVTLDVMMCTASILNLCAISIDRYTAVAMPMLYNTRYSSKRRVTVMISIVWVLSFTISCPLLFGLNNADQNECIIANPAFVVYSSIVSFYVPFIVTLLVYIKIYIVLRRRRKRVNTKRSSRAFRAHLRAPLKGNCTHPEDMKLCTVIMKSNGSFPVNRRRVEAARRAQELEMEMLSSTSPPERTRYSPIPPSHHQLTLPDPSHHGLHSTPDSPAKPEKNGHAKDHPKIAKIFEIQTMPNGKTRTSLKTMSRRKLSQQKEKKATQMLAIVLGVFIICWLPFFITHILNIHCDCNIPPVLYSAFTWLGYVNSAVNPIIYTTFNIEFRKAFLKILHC
Method: as §1, §2

[12] = target: H1 (Homo sapiens, UniProt P35367); assay: R-SAT selectivity profile; assay type: cell-based; design: expressed in transfected cells
Sequence of H1 (P35367 whole entry): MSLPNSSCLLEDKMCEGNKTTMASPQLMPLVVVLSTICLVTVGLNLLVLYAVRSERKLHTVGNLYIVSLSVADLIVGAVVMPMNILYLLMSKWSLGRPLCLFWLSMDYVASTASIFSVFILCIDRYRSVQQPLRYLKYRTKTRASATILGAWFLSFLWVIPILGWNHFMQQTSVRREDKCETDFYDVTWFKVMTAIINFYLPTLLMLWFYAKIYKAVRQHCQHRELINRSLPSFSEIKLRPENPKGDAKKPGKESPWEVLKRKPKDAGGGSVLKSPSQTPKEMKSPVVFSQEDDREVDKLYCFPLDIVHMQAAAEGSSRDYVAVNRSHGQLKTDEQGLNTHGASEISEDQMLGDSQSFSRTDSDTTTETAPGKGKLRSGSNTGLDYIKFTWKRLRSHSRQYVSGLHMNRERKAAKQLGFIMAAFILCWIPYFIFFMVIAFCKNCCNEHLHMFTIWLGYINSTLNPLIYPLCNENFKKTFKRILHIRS
Method: as §1, §2

CC(C)COc1ccc(CC(=O)N(Cc2ccc(F)cc2)C2CCN(CCCN3C(=O)OC[C@@H]3C(C)C)CC2)cc1.O=C(O)C(=O)O [Example 117NLS01, N-(4-Fluorobenzyl)-2-(4-isobutoxyphenyl)-N-{1-[3-(4-(S)-isopropyl-2-oxo-oxazolidin-3-yl)propyl]piperidin-4-yl}acetamide, oxalate]
Emax ([1]; 120 h, read-out: 5HT2A % INH): 104% | IC50 ([1]; Table 5, read-out: 5HT2A pIC50 (converted)): 0.2 nM | MED in vivo po [2]: 1 mg/kg

Cc1ccc(CN(C(=O)NCc2ccccc2)C2CCN(Cc3ccccc3)CC2)cc1 [Example 26HCH16D, N-((4-Methylphenyl)methyl)-N-(1-(phenylmethyl)piperidin-4-yl)-N′-phenylmethylcarbamide hydrochloride]
IC50 ([1]; IC50, Inverse Agonist, 7 points in triplicate): 0.9 nM | selectivity as 5-HT2A inverse agonist ([1]; in words): highly selective | Emax ([1]; read-out: % efficacy): 79% | Efficacy [3]: nr (nr=activity less than 30% at all doses tested (3, 30, 300, 3000 nM), therefore EC50/IC50 greater than 3000 nM) | Efficacy ([4]; agonist): nr (nr=activity less than 30% at all doses tested (3, 30, 300, 3000 nM), therefore EC50/IC50 greater than 3000 nM) | Efficacy ([4]; antagonist): nr (nr=activity less than 30% at all doses tested (3, 30, 300, 3000 nM), therefore EC50/IC50 greater than 3000 nM) | initial concentration at which at least 30% efficacy observed ([5]; Antagonist, 4 dose profiling): 3000 nM | Efficacy ([5]; agonist): nr (nr=activity less than 30% at all doses tested (3, 30, 300, 3000 nM), therefore EC50/IC50 greater than 3000 nM) | actual efficacy figure ([5]; antagonist): 46% | Efficacy ([6]; agonist): nr (nr=activity less than 30% at all doses tested (3, 30, 300, 3000 nM), therefore EC50/IC50 greater than 3000 nM) | Efficacy ([6]; antagonist): nr (nr=activity less than 30% at all doses tested (3, 30, 300, 3000 nM), therefore EC50/IC50 greater than 3000 nM) | Efficacy [7]: nr (nr=activity less than 30% at all doses tested (3, 30, 300, 3000 nM), therefore EC50/IC50 greater than 3000 nM) | Efficacy [8]: nr (nr=activity less than 30% at all doses tested (3, 30, 300, 3000 nM), therefore EC50/IC50 greater than 3000 nM) | initial concentration at which at least 30% efficacy observed ([9]; Antagonist, 4 dose profiling): 3000 nM | actual efficacy figure ([9]; antagonist): 60% | initial concentration at which at least 30% efficacy observed ([10]; Inverse Agonist, 4 dose profiling): 3000 nM | actual efficacy figure ([10]; inverse agonist): 79% | actual efficacy figure [11]: 73% | initial concentration at which at least 30% efficacy observed ([11]; Antagonist, 4 dose profiling): 3000 nM | Efficacy ([11]; agonist): nr (nr=activity less than 30% at all doses tested (3, 30, 300, 3000 nM), therefore EC50/IC50 greater than 3000 nM) | initial concentration at which at least 30% efficacy observed ([12]; Antagonist, 4 dose profiling): 3000 nM | Efficacy ([12]; agonist): nr (nr=activity less than 30% at all doses tested (3, 30, 300, 3000 nM), therefore EC50/IC50 greater than 3000 nM) | actual efficacy figure ([12]; antagonist): 30%
